# Columns and labels:
# in vivo = test: in vivo; parameters: species or system Balb/c nude mice; conditions: mouse, iv, 40 mg/kg
# Procedure: (§1) Female Balb/c nude mice at 7-8 weeks of age (Body weights between 17-18g) were purchased from Hunan SJA Laboratory Animal Co., Ltd. HT-29 cells were cultured in DMEM culture medium containing 10% fetal bovine serum and LoVo cells were cultured in RPMI 1640 culture medium containing 10% fetal bovine serum. The cells were harvested and washed with serum free culture medium. Finally, the cells were suspended at a cell density of […] in serum free culture medium for implantation. 5 million cells per animal suspended in 0.1 ml serum free culture medium and 1.1 matrigel were injected into the right flank of the animals after a one, week acclimation period. When average tumor volume reached acceptable tumor size (100-200 mm^3) and shape, the animals were randomly assigned into treatment groups.
# Compound 3 was selected for further PK studies in tumor bearing mice. HT-29 colon cancer cells were implanted to establish the xenograft model in Balb/c nude mice. Twenty-four mice were divided into 8 time groups with n=3/group. Compound 3 was dissolved in 30% SEB-β-CD (Zhiyuan Bio-technology) with 1 molar equivalents of HCl. Each animal was dosed via intravenous administration of Compound 3 at 40 mg/kg. Blood and tumors were collected at various time points after mice were euthanized with CO2. Blood samples were centrifuged at 4° C. immediately after collection. The supernatants were transferred to 1.5 mL of Eppendorf vials as soon as possible and stored at −80° C. in a freezer. Tumor samples were collected and placed in dry ice until transferred to a −80° C. freezer for bioanalysis.
# [1] = tested on: HT-29 colon cancer xenograft; assay type: in vivo
# Procedure: as §1
# HT-29 colon cancer cells were implanted to establish the xenograft model in Balb/c nude mice. Compound 3 and LY2606368 were dissolved in 30% SEB-β-CD (Zhiyuan Bio-technology) with 1 molar equivalents of HCl. GDC-575 was suspended in 0.5% methyl cellulose/0.1% Tween 80 in water. […]. The animals well tolerated each treatment in the HT-29 colon cancer in nude mice model.
smiles,measurement,setting,value
"COc1cc(F)cc(OCCCN)c1-c1cc(Nc2cnc(C#N)cn2)n[nH]1 [Compound 3, 5-(5-(2-(3-Aminopropoxy)-4-fluoro-6-methoxyphenyl)-1H-pyrazol-3-ylamino)pyrazine-2-carbonitrile]",Kp,"in vivo; female, Balb/c nude",~6
same,half-life,"in vivo; female, Balb/c nude, half-life in blood",6.1 h
same,half-life,"in vivo; female, Balb/c nude, half-life in tumor tissues",14 h
same,distribution into tumor tissues,in vivo,rapidly distributed into tumor tissues
same,T/C value,"[1]; 40 mg/kg, iv, 2 times/week",31%
same,Tumor volume (X ± SD),"[1]; 40 mg/kg, iv, 2 times/week",407 ± 17 mm^3
same,Tumor weight (X ± SD),"[1]; 40 mg/kg, iv, 2 times/week",272 ± 16 mg
same,efficacy compared with references at their MTD,"[1]; mouse, in vivo",more efficacious than the reference LY-2606368

# — patent US11116767B2, “3,5-disubstituted pyrazoles useful as checkpoint kinase 1 (Chk1) inhibitors, and their preparations and applications” (PHARMAENGINE, INC., priority 2016, dated 2021)
